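Tested at 5 concentrations; 48 h exposure; 96-well plates; endpoints linearly interpolated, else capped at highest concentration. GI50: concentration for 50% inhibition of growth.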 The source made the active and inactive calls. No stated cut-off is given here; in the data, active = GI50 up to about 1.1 µM and inactive = higher.
What was measured:
Assay in all cases: NCI tumour cell line growth inhibition, 48 h
[1] = system: K562
[2] = system: SK-OV-3
[3] = system: SK-MEL-5
[4] = system: UACC-257
[5] = system: SW-620
[6] = system: SF-539
[7] = system: Malme-3M
[8] = system: T47D
[9] = system: HT-29
[10] = system: IGROV-1
[11] = system: SF-268
[12] = system: SNB-19
[13] = system: BT-549
[14] = system: NCI-H226
[15] = system: NCI-H23
[16] = system: MDA-N
[17] = system: COLO 205
[18] = system: PC-3
[19] = system: NCI-H522
[20] = system: SN12C
[21] = system: RPMI-8226
[22] = system: UACC-62
[23] = system: SNB-75
[24] = system: OVCAR-8
[25] = system: DU-145
[26] = system: KM12
[27] = system: MDA-MB-231
[28] = system: CCRF-CEM
[29] = system: M14
[30] = system: NCI/ADR-RES
[31] = system: HCC 2998
[32] = system: MDA-MB-435
[33] = system: LOX IMVI
[34] = system: OVCAR-5
[35] = system: EKVX
[36] = system: MOLT-4
[37] = system: OVCAR-3
[38] = system: SK-MEL-2
[39] = system: ACHN
[40] = system: NCI-H460
[41] = system: CAKI-1
[42] = system: HOP-62
[43] = system: Hs-578T
[44] = system: A498
[45] = system: SF-295
[46] = system: HCT-15
[47] = system: SK-MEL-28
[48] = system: 786-0
[49] = system: SR
[50] = system: RXF 393
[51] = system: HCT-116
[52] = system: OVCAR-4
[53] = system: TK-10
[54] = system: A549
[55] = system: U-251
[56] = system: HL-60
[57] = system: HOP-92
[58] = system: UO-31

Structure (SMILES): COC(=O)[C@H](CC(C)C)NC1=C(Cl)C(=O)c2c(O)ccc(O)c2C1=O
- GI50 [1]: > 10 µM (inactive)
- GI50 [2]: > 10 µM (inactive)
- GI50 [3]: > 10 µM (inactive)
- GI50 [4]: > 10 µM (inactive)
- GI50 [5]: 9.64 µM (inactive)
- GI50 [6]: 9.02 µM (inactive)
- GI50 [7]: 0.887 µM (active)
- GI50 [8]: > 10 µM (inactive)
- GI50 [9]: 3.01 µM (inactive)
- GI50 [10]: > 10 µM (inactive)
- GI50 [11]: > 10 µM (inactive)
- GI50 [12]: > 10 µM (inactive)
- GI50 [13]: > 10 µM (inactive)
- GI50 [14]: > 10 µM (inactive)
- GI50 [15]: 6.53 µM (inactive)
- GI50 [16]: 8.73 µM (inactive)
- GI50 [17]: 4.34 µM (inactive)
- GI50 [18]: > 10 µM (inactive)
- GI50 [19]: > 10 µM (inactive)
- GI50 [20]: > 10 µM (inactive)
- GI50 [21]: 4.81 µM (inactive)
- GI50 [22]: > 10 µM (inactive)
- GI50 [23]: > 10 µM (inactive)
- GI50 [24]: > 10 µM (inactive)
- GI50 [25]: > 10 µM (inactive)
- GI50 [26]: 6.43 µM (inactive)
- GI50 [27]: > 10 µM (inactive)
- GI50 [28]: 4.31 µM (inactive)
- GI50 [29]: 3.45 µM (inactive)
- GI50 [30]: > 10 µM (inactive)
- GI50 [31]: > 10 µM (inactive)
- GI50 [32]: 8.89 µM (inactive)
- GI50 [33]: 1.8 µM (inactive)
- GI50 [34]: > 10 µM (inactive)
- GI50 [35]: > 10 µM (inactive)
- GI50 [36]: 3.52 µM (inactive)
- GI50 [37]: 1.73 µM (inactive)
- GI50 [38]: > 10 µM (inactive)
- GI50 [39]: > 10 µM (inactive)
- GI50 [40]: > 10 µM (inactive)
- GI50 [41]: > 10 µM (inactive)
- GI50 [42]: > 10 µM (inactive)
- GI50 [43]: > 10 µM (inactive)
- GI50 [44]: > 10 µM (inactive)
- GI50 [45]: > 10 µM (inactive)
- GI50 [46]: 3.05 µM
- GI50 [47]: > 10 µM (inactive)
- GI50 [48]: 6.97 µM (inactive)
- GI50 [49]: > 10 µM (inactive)
- GI50 [50]: > 10 µM (inactive)
- GI50 [51]: 2.46 µM (inactive)
- GI50 [52]: > 10 µM (inactive)
- GI50 [53]: > 10 µM (inactive)
- GI50 [54]: 7.24 µM (inactive)
- GI50 [55]: > 10 µM (inactive)
- GI50 [56]: 8.02 µM (inactive)
- GI50 [57]: > 10 µM (inactive)

Structure (SMILES): CCN(CC)C(=S)SS(=O)(=O)c1ccc(NC(C)=O)cc1
- GI50 [1]: 33.9 µM (inactive)
- GI50 [2]: 40.5 µM (inactive)
- GI50 [3]: 0.778 µM (active)
- GI50 [4]: 21.8 µM (inactive)
- GI50 [5]: 16.7 µM (inactive)
- GI50 [7]: 15.9 µM (inactive)
- GI50 [8]: 24.9 µM (inactive)
- GI50 [9]: 24.8 µM (inactive)
- GI50 [11]: 28.9 µM (inactive)
- GI50 [12]: 38.1 µM (inactive)
- GI50 [13]: 39.3 µM (inactive)
- GI50 [14]: > 59.7 µM (inactive)
- GI50 [15]: 24 µM (inactive)
- GI50 [16]: 27.6 µM (inactive)
- GI50 [58]: 19.5 µM (inactive)
- GI50 [17]: 25.6 µM (inactive)
- GI50 [18]: 27.1 µM (inactive)
- GI50 [19]: < 0.0213 µM (active)
- GI50 [20]: 18.2 µM (inactive)
- GI50 [21]: 18.5 µM (inactive)
- GI50 [22]: 19.9 µM (inactive)
- GI50 [23]: 25.4 µM (inactive)
- GI50 [24]: 15.7 µM (inactive)
- GI50 [25]: 22.6 µM (inactive)
- GI50 [26]: 55.8 µM (inactive)
- GI50 [27]: 17 µM (inactive)
- GI50 [29]: 17.1 µM (inactive)
- GI50 [30]: 28 µM (inactive)
- GI50 [31]: 31.6 µM (inactive)
- GI50 [32]: 17.1 µM (inactive)
- GI50 [33]: 15.9 µM (inactive)
- GI50 [34]: 24.5 µM (inactive)
- GI50 [35]: 44.5 µM (inactive)
- GI50 [37]: 31.7 µM (inactive)
- GI50 [38]: 41.7 µM (inactive)
- GI50 [39]: 36.1 µM (inactive)
- GI50 [40]: 26.2 µM (inactive)
- GI50 [41]: 18.8 µM (inactive)
- GI50 [42]: 18.1 µM (inactive)
- GI50 [43]: 45 µM (inactive)
- GI50 [44]: > 55.6 µM (inactive)
- GI50 [45]: 28.2 µM (inactive)
- GI50 [46]: 30.9 µM
- GI50 [47]: 17.3 µM (inactive)
- GI50 [48]: 17.5 µM (inactive)
- GI50 [49]: 0.0226 µM (active)
- GI50 [50]: 15.2 µM (inactive)
- GI50 [51]: 16 µM (inactive)
- GI50 [52]: 20.4 µM (inactive)
- GI50 [53]: 32.6 µM (inactive)
- GI50 [54]: 2.21 µM (inactive)
- GI50 [55]: 18 µM (inactive)
- GI50 [56]: 23.9 µM (inactive)
- GI50 [57]: 19.8 µM (inactive)

Reference: ChEMBL document CHEMBL1201862, “PubChem BioAssay data set” (2004)
